Laboratory results: patent publication US9321745B2, “Inhibition of neovascularization by inhibition of prostanoid IP receptors” (ALLERGAN, INC., priority 2013, dated 2016)

What was measured:
[1] = system: laser-induced choroidal neovascularization (CNV); assay: Laser-induced model of choroidal neovascularization (CNV); format: in vivo
Method: A laser-induced model of CNV was employed, as known in the art, to determine whether blockade of IP receptors alone is sufficient to inhibit CNV. See e.g., Francois et al., 1975, Am. J. Ophthalmol. 79:206-210; Edelman & Castro, 2000, Exp. Eye Res. 71:523-533; Goody, R. J., et al., 2011, Exp. Eye. Research 92:464-472. Test rats were administered laser treatment after which vehicle (50% propylene glycol in H2O) or IP receptor antagonist Formula II was administered. The area of subsequently identified CNV was quantified by methods known in the art. […] Moreover, as depicted in FIG. 2C, the area of CNV was reduced on a per lesion basis.

[2] = target: T1, IP receptor (Homo sapiens, UniProt P43119); assay: Inhibition of 100 nM cicaprost-induced VEGF secretion in TNFα-stimulated human macrophages; format: cell-based; details: TNFα-stimulated human macrophages from two individual donors, FIG. 1B
T1 construct: endogenous in cells; host or cells: TNFα-stimulated human macrophages from individual donors
From the text: (§1) A TNFα-stimulated human macrophage system was employed, as known in the art, to assess the effect of IP receptor agonist and IP receptor antagonist on induction of VEGF secretion.
In order to test whether a IP receptor antagonist can reverse the effect of cicaprost-induced VEGF secretion in TNFα-stimulated human macrophages, the IP receptor antagonist Formula I was employed.

[3] = target: T1, IP receptor; assay: Cicaprost-induced VEGF secretion in TNFα-stimulated human macrophages; format: cell-based; details: FIG. 1A
From the text: as §1

T1 sequence (P43119 whole entry): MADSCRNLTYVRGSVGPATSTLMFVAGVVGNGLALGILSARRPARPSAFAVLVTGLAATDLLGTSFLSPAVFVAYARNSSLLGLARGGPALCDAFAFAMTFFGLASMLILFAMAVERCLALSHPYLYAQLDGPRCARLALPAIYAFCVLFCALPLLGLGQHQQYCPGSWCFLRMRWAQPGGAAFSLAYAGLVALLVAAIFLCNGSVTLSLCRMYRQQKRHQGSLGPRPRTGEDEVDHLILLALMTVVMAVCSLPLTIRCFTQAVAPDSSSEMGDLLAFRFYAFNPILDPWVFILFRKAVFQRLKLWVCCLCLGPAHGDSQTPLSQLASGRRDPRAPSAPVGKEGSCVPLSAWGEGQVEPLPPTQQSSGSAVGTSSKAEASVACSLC

## O=C(N[C@@H](Cc1ccc(F)cc1)C(=O)O)OCc1cc2cc(-c3cccc(F)c3)ccc2o1 [Formula II]
[1]; after laser treatment, vs vehicle 50% propylene glycol in H2O, n=6, FIG. 2A
  area of CNV per test subject (rat vs. rat): significantly reduced
[1]; rat, after laser treatment, vs vehicle, n=12, FIG. 2B
  area of CNV, comparison of each eye (eye vs. eye): reduced
[1]; rat, after laser treatment, vs vehicle, n=38, FIG. 2C
  area of CNV on a per lesion basis (lesion vs. lesion): reduced
[1]; rat, FIG. 2 overall, vs vehicle 50% propylene glycol in H20
  inhibition of laser-induced choroidal neovascularization (CNV): sufficient to inhibit laser-induced choroidal neovascularization

## CC(C)Oc1ccc(Cc2ccc(NC3=NCCN3)cc2)cc1 [Formula I]
[2]
  inhibition of cicaprost-induced VEGF secretion: dose dependently inhibits

## CCC#CC[C@H](C)[C@H](O)C#C[C@@H]1[C@H]2C/C(=C/COCC(=O)O)C[C@H]2C[C@H]1O [cicaprost]
[3]
  induction of VEGF secretion: dose dependently induces VEGF secretion
